Test systems include OVCAR-3 ovarian; BT-549 breast; SK-OV-3 ovarian; UACC-257 melanoma; 786-0 renal; A549 NSCLC; NCI-H522 lung; MDA-MB-231 breast; TK-10 renal; K-562 leukemia; SF-268 CNS; LOX IMVI melanoma; SNB-19 CNS; HL-60(TB) leukemia.
Common to all, as to test: NCI anticancer screen, dose series, 48 h

Structures are written as SMILES.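 Grown in 96-well plates, cells were treated for 48 hours with each compound at five concentrations. Insufficient inhibition: endpoint recorded as highest concentration tested. At the TGI there is no net growth.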 *1 amine or outer side, *2 acyl side, *3 side chain or, on linkers, in order; H or OH if unused. Where a SMILES comes first, the peptide text is derived from it. Bridges are numbered along the chain shown (N, C = ends). [ ]: non-standard residue; d: D form. X59 = COc1c(N[*:1])cccc1C(=O)O[C@H](C(=O)[C@H](C)C(=O)[*:2])C(C)C; X58 = CC(C)C[C@H](C(=O)[*:2])C(C)C(=O)C1CCCN1[*:1]; NMeY = CN[C@@H](Cc1ccc(O)cc1)C(=O)O; Lac = C[C@H](O)C(=O)O

For the molecule `COc1ccc2c(c1)C1c3ccccc3CCN1CCC2` (stereo not drawn), the TGI was greater than 100 µM with OVCAR-3 ovarian; 68.2 µM in the assay with BT-549 breast; greater than 100 µM with SK-OV-3 ovarian; greater than 100 µM with UACC-257 melanoma; greater than 100 µM in the assay on 786-0 renal; greater than 100 µM in the assay with A549 NSCLC. Also, the TGI in the assay on NCI-H522 lung is 98.1 µM; in the assay on MDA-MB-231 breast, 84.7 µM; in the assay with TK-10 renal, greater than 100 µM; in the assay with K-562 leukemia it was greater than 100 µM; in the assay on SF-268 CNS, greater than 100 µM; in the assay on LOX IMVI melanoma, greater than 100 µM. For the same molecule, in the assay on SNB-19 CNS, the TGI was greater than 100 µM.

For the molecule `COc1ccc(C[C@H]2C(=O)O[C@H](C)[C@H](NC(=O)[C@@H](CC(C)C)C(C)C(=O)C3CCCN3C(=O)[C@H](C)O)C(=O)Nc3cccc(c3OC)C(=O)O[C@@H](C(C)C)C(=O)[C@H](C)C(=O)N[C@@H](CC(C)C)C(=O)N3CCC[C@H]3C(=O)N2C)cc1` (stereo partly drawn) (H-[Lac][X58]T[X59]LP[NMeY](Me); ester 3-C), the TGI in the assay with OVCAR-3 ovarian, in the assay with BT-549 breast, with SK-OV-3 ovarian, in the assay on UACC-257 melanoma, in the assay with 786-0 renal and in the assay on A549 NSCLC was greater than 12.5 µM each time. Moreover, the TGI in the assay on NCI-H522 lung, in the assay on MDA-MB-231 breast, with TK-10 renal, in the assay with K-562 leukemia, in the assay with SF-268 CNS and in the assay on LOX IMVI melanoma was greater than 12.5 µM in each case. For the same molecule, the TGI in the assay on SNB-19 CNS is greater than 12.5 µM.

Turning to `COc1cccc(N2C(=O)C3c4[nH]c5ccc(C)cc5c4C4CCC(C)CC4C3C2=O)c1` (stereo not drawn), the TGI with OVCAR-3 ovarian was greater than 100 µM; with HL-60(TB) leukemia it was 25.3 µM; in the assay on BT-549 breast, greater than 100 µM; with SK-OV-3 ovarian, greater than 100 µM; in the assay with UACC-257 melanoma, greater than 100 µM; in the assay on 786-0 renal, greater than 100 µM. In addition, the TGI with A549 NSCLC, in the assay on MDA-MB-231 breast, in the assay with TK-10 renal, in the assay on K-562 leukemia, with SF-268 CNS and in the assay with LOX IMVI melanoma was greater than 100 µM throughout. The TGI in the assay with SNB-19 CNS was greater than 100 µM.

As for `O=C1/C(=C/c2ccc(OC(=O)c3ccc(Cl)cc3)cc2)CCC/C1=C\c1ccc(OC(=O)c2ccc(Cl)cc2)cc1`, the TGI in the assay on OVCAR-3 ovarian, with HL-60(TB) leukemia, in the assay with BT-549 breast, in the assay on UACC-257 melanoma, in the assay on 786-0 renal and with A549 NSCLC was greater than 100 µM in each case. In addition, the TGI in the assay on NCI-H522 lung, in the assay with MDA-MB-231 breast, with TK-10 renal, in the assay with SF-268 CNS, with LOX IMVI melanoma and in the assay on SNB-19 CNS was greater than 100 µM in each case.

Consider `CC(C)=CC[C@H]1C[C@@]2(CC=C(C)C)C(=O)/C(=C(/O)c3ccccc3)C(=O)[C@](CC=C(C)C)(C2=O)C1(C)C`, for which the TGI was 35 µM in the assay with BT-549 breast; 24.3 µM in the assay on SK-OV-3 ovarian; 19.7 µM with UACC-257 melanoma; 21.4 µM with 786-0 renal; 23.7 µM with A549 NSCLC; 32.5 µM with NCI-H522 lung. The TGI stood at 22.3 µM in the assay on MDA-MB-231 breast; 20.6 µM in the assay with TK-10 renal; 50.4 µM with K-562 leukemia; 39.4 µM in the assay with SF-268 CNS; 17 µM with LOX IMVI melanoma; 20.4 µM with SNB-19 CNS.

Regarding `CCN(CC)c1ccc2cc(-c3csc(C)n3)c(=O)oc2c1`, the TGI with HL-60(TB) leukemia, with BT-549 breast, in the assay on SK-OV-3 ovarian, in the assay on UACC-257 melanoma, with 786-0 renal and in the assay with A549 NSCLC was greater than 100 µM in each case. Further, the TGI with MDA-MB-231 breast, in the assay on TK-10 renal, in the assay with K-562 leukemia, in the assay with SF-268 CNS, with LOX IMVI melanoma and in the assay on SNB-19 CNS was greater than 100 µM each time.

For the molecule `CCOC(=O)C(C)c1nc2cc(C(F)(F)F)ccc2[nH]c1=O` (stereo not drawn), the TGI in the assay with OVCAR-3 ovarian, in the assay on HL-60(TB) leukemia, in the assay with BT-549 breast, in the assay on SK-OV-3 ovarian, in the assay on UACC-257 melanoma and with 786-0 renal was greater than 100 µM throughout. Moreover, the TGI with A549 NSCLC, with MDA-MB-231 breast, with TK-10 renal, with K-562 leukemia, in the assay on SF-268 CNS and in the assay on LOX IMVI melanoma was greater than 100 µM each time. The TGI in the assay with SNB-19 CNS was greater than 100 µM.

Consider `C=C(C)CCN(C(=O)OC(C)(C)C)c1cc(C(C)C)co1`, for which the TGI was greater than 100 µM in the assay with OVCAR-3 ovarian; 43.8 µM in the assay on HL-60(TB) leukemia; greater than 100 µM with BT-549 breast; greater than 100 µM in the assay on SK-OV-3 ovarian; greater than 100 µM in the assay on UACC-257 melanoma; greater than 100 µM in the assay with 786-0 renal. In addition, the TGI in the assay with A549 NSCLC is greater than 100 µM; in the assay on MDA-MB-231 breast it was greater than 100 µM; in the assay with TK-10 renal it was greater than 100 µM; in the assay with K-562 leukemia, greater than 100 µM; in the assay on SF-268 CNS it was 55.7 µM; with LOX IMVI melanoma it was 96.7 µM. The molecule further gave a TGI with SNB-19 CNS greater than 100 µM.

With `CN(C(=O)c1cc2c(s1)sc1c(=O)n(C)c3ccccc3c12)c1ccccc1`, the TGI in the assay on OVCAR-3 ovarian, in the assay with BT-549 breast, with SK-OV-3 ovarian, in the assay on UACC-257 melanoma, in the assay with 786-0 renal and with A549 NSCLC was greater than 100 µM each time. Further, the TGI in the assay on NCI-H522 lung, in the assay on MDA-MB-231 breast, with TK-10 renal, in the assay on K-562 leukemia, with LOX IMVI melanoma and with SNB-19 CNS was greater than 100 µM in each case.

Regarding `COc1ccc2oc(=O)c(-c3csc(-c4ccccc4)n3)cc2c1`, the TGI is greater than 100 µM in the assay with HL-60(TB) leukemia; 50.2 µM in the assay on BT-549 breast; 38 µM in the assay on SK-OV-3 ovarian; greater than 100 µM in the assay on UACC-257 melanoma; 34.3 µM in the assay with 786-0 renal; greater than 100 µM in the assay with A549 NSCLC. The TGI in the assay with MDA-MB-231 breast was greater than 100 µM; in the assay with TK-10 renal, 50.6 µM; with K-562 leukemia, greater than 100 µM; with SF-268 CNS, 71.2 µM; with LOX IMVI melanoma, greater than 100 µM; in the assay with SNB-19 CNS it was 45 µM.

Turning to `Oc1ccccc1-c1n[nH]c(-c2ccccc2O)n1`, the TGI with HL-60(TB) leukemia is greater than 23.7 µM; with BT-549 breast it was greater than 100 µM; in the assay with SK-OV-3 ovarian, greater than 100 µM; with 786-0 renal, greater than 100 µM; in the assay with A549 NSCLC, greater than 100 µM; with MDA-MB-231 breast it was greater than 100 µM. In addition, the TGI in the assay with TK-10 renal, in the assay with K-562 leukemia, in the assay with SF-268 CNS and in the assay with LOX IMVI melanoma was greater than 100 µM each time.

On to `CN(C)CCN=C1Nc2ccccc2C(=O)N2CSCC12` (stereo not drawn), for which the TGI in the assay on OVCAR-3 ovarian, with BT-549 breast, in the assay on SK-OV-3 ovarian, in the assay with UACC-257 melanoma, in the assay with 786-0 renal and in the assay on A549 NSCLC was greater than 100 µM in each case. Moreover, the TGI in the assay with NCI-H522 lung, in the assay with MDA-MB-231 breast, in the assay with TK-10 renal, in the assay with K-562 leukemia, in the assay with SF-268 CNS and in the assay with LOX IMVI melanoma was greater than 100 µM in each case. Besides, the TGI in the assay on SNB-19 CNS is greater than 100 µM.

In the case of `CC(C(=O)O)C1Nc2ccccc2NC1=O` (stereo not drawn), the TGI in the assay with OVCAR-3 ovarian, in the assay on HL-60(TB) leukemia, in the assay with BT-549 breast, with SK-OV-3 ovarian, with UACC-257 melanoma and with 786-0 renal was greater than 100 µM in each case. Besides, the TGI with A549 NSCLC, in the assay with MDA-MB-231 breast, in the assay with TK-10 renal, in the assay with K-562 leukemia, in the assay with SF-268 CNS and with LOX IMVI melanoma was greater than 100 µM each time. This molecule displayed a TGI in the assay with SNB-19 CNS greater than 100 µM.

On to `CCOC(=O)CNC(=O)CNC(=O)CNC(=O)CNNc1c(OCc2ccccc2)c(=O)c1=O`, for which the TGI in the assay with OVCAR-3 ovarian, in the assay on BT-549 breast, in the assay with SK-OV-3 ovarian, in the assay on UACC-257 melanoma, with 786-0 renal and in the assay with A549 NSCLC was greater than 100 µM each time. Besides, the TGI with NCI-H522 lung, in the assay on MDA-MB-231 breast, in the assay on TK-10 renal, in the assay with K-562 leukemia, with SF-268 CNS and in the assay with SNB-19 CNS was greater than 100 µM each time.

As to `CNC(=O)OCc1nc(N=[N+]=[N-])n(C)c1COC(=O)NC`, the TGI is greater than 100 µM in the assay with OVCAR-3 ovarian; 48.9 µM in the assay on HL-60(TB) leukemia; greater than 10 µM in the assay with BT-549 breast; greater than 100 µM in the assay with UACC-257 melanoma; greater than 10 µM in the assay with 786-0 renal; greater than 100 µM in the assay on A549 NSCLC. For the same molecule, the TGI in the assay with NCI-H522 lung was 40.7 µM; with MDA-MB-231 breast, greater than 100 µM; in the assay with TK-10 renal it was greater than 100 µM; in the assay on K-562 leukemia, greater than 100 µM; in the assay on SF-268 CNS, greater than 100 µM; in the assay with LOX IMVI melanoma, greater than 100 µM.

In the case of `CCOC(=O)CON=c1c2ccccc2ccc2ccccc12`, the TGI with OVCAR-3 ovarian, in the assay with HL-60(TB) leukemia, with BT-549 breast, with SK-OV-3 ovarian, in the assay on UACC-257 melanoma and with 786-0 renal was greater than 100 µM throughout. Moreover, the TGI with A549 NSCLC, with MDA-MB-231 breast, in the assay on TK-10 renal, in the assay with K-562 leukemia, in the assay on SF-268 CNS and in the assay on LOX IMVI melanoma was greater than 100 µM each time. For the same molecule, the TGI in the assay with SNB-19 CNS is greater than 100 µM.

The record behind these values is PubChem BioAssay (NCI).
